This note sets out measurements from ChEMBL document CHEMBL1806472, “Nobiletin metabolites: synthesis and inhibitory activity against matrix metalloproteinase-9 production” (Bioorg Med Chem Lett, 2011).

As a reminder, the IC50 is the concentration needed to halve the response being measured. High values mean weaker potency in that assay, low ones greater potency in that assay.

Assay [1] is described as follows: Inhibition of PMA-induced proMMP9 production in human SRA 01/04 cells after 24 hrs by SDS-PAGE analysis. Format: functional, cell-based.
A short description of assay [2]: Inhibition of TNF-alpha-induced proMMP9 production in human SRA 01/04 cells after 24 hrs by SDS-PAGE analysis. Format: functional, cell-based.

As for `COc1cc(-c2cc(=O)c3c(OC)c(OC)c(OC)c(OC)c3o2)ccc1O`, the half-maximal inhibitory concentration (IC50) amounted to 3.7 µM in assay [1] and 5.5 µM in assay [2].
The matching figures for `COc1ccc(-c2cc(=O)c3c(OC)c(OC)c(OC)c(OC)c3o2)cc1O`: 16.9 µM and 16.4 µM.
For `COc1c(OC)c(OC)c2c(=O)cc(-c3ccc(O)c(O)c3)oc2c1OC` the same measures were 12.3 µM and 10.8 µM.
The matching figures for `COc1ccc(-c2cc(=O)c3c(OC)c(OC)c(OC)c(OC)c3o2)cc1OC` [NOBILETIN]: 20.9 µM and 17 µM.
